Measurements as given in paper PMC12797170, “Potent Competitive Inhibitors of Ecto-5′-nucleotidase (CD73) based on 6‑(Het)aryl-7-deazapurine Ribonucleoside 5′‑O‑Bisphosphonates” (ACS Pharmacology & Translational Science, 2025).
≈ marks a conversion by molar mass, not a printed value. Read-outs that look alike come from different tables or passages of the source.

Assays:
in vitro [1] = conditions: mouse, plasma
HeLa S3 = test: In vitro cytotoxic activity; assay type: cell-based; conditions: Homo sapiens
Procedure: (§1) All the compounds were also tested for their in vitro cytotoxic activity on a small panel of four cancer cell lines (CCRF-CEM, HepG2, HeLa S3, HL-60) and nonmalignant human dermal fibroblasts (NHDF).

CCRF-CEM = test: In vitro cytotoxic activity; assay type: cell-based; conditions: Homo sapiens
Procedure: as §1

HepG2 = test: In vitro cytotoxic activity; assay type: cell-based; conditions: Homo sapiens
Procedure: as §1

[2] = system: nonmalignant human dermal fibroblasts (NHDF); test: In vitro cytotoxic activity; assay type: cell-based
Procedure: as §1

HL-60 = test: In vitro cytotoxic activity; assay type: cell-based; conditions: Homo sapiens
Procedure: as §1

[3] = Plasma protein binding, mouse plasma; assay type: in vitro ADME; conditions: mouse, plasma, mouse plasma protein binding; read-out: PPB (m) (converted)
[4] = Kinetic solubility in PBS; assay type: physicochemical; conditions: phosphate-buffered saline, pH 7.4, aqueous buffer, kinetic from dmso stock
Outline: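 DMSO stocks diluted into PBS pH 7.4 to 100 μM and shaken 2 h at room temperature in duplicate, then filtered by centrifugation. Filtrates diluted 1:99 in 50% acetonitrile. Quantified by Echo-MS against calibration standards spanning 0.05–4 μM.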

[5] = target: T1, recombinant human CD73 (hCD73) (Homo sapiens, UniProt P21589); test: CD73 activity assay on recombinant human CD73; assay type: biochemical; conditions: ΔGexp = RT ln Ki
T1 sequence (P21589 27-574): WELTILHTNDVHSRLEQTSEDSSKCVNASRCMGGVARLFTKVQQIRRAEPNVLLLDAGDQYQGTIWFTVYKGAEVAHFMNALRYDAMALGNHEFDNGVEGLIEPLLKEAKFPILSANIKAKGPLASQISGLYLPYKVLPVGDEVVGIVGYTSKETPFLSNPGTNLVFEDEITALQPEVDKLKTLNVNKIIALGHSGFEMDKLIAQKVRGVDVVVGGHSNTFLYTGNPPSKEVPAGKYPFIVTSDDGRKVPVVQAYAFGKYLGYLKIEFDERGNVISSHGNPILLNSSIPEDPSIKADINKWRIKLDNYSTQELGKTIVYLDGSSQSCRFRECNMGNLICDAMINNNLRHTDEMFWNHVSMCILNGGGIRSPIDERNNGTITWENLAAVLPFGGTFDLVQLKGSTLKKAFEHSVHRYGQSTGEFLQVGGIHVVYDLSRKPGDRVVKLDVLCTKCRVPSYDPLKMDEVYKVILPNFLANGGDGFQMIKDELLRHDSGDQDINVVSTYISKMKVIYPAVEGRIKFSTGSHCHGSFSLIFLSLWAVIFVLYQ

in vitro [6] = conditions: human, plasma
[7] = In vivo pharmacokinetic study, intravenous; design: species or system male CD-1 mice
Procedure: The pharmacokinetic study was performed by Bienta (Enamine Biology Services) using male CD-1 mice (3 animals, 9 weeks old, body weight ranging from 29.2 to 33.7 g) following intravenous administration. Levels of the test compound were determined by LC-MS/MS in blood plasma over time (seven sampling time points: 5, 15, 30, 60, 120, 240, and 480 min) after a single dose.
Animal treatment and samples preparation were conducted by the Animal Laboratory personnel at Enamine/Bienta.

[8] = Plasma protein binding, equilibrium dialysis, human plasma; assay type: in vitro ADME; conditions: undiluted plasma
[9] = Microsomal stability assay, mouse liver microsomes; assay type: in vitro ADME; conditions: for Mics (m) comp remaining 60 min: 10 μM; for microsomal CLint at 10 µM: pooled liver microsomes, pH 7.4, read-out: Mics (m) CLint
[10] = Microsomal stability assay, human liver microsomes; assay type: in vitro ADME; conditions: for Mics (hu) comp remaining 60 min: 10 μM; for microsomal CLint at 10 µM: pooled liver microsomes, pH 7.4, read-out: Mics (hu) CLint
[11] = male, CD-1, mouse, plasma, iv, 1 mg/kg, footnote: t1/2 stability in plasma, text: half-life in mouse PK, intravenous
[12] = Tables 1 and 3, human plasma as printed in footnote, read-out: fup, fraction unbound in human plasma
[13] = human plasma protein binding, read-out: PPB (hu) (converted)

SMILES	half-life at 10 µM (in vitro [1])	IC50 (HeLa S3)	IC50 (CCRF-CEM)	IC50 (HepG2)	IC50 [2]	IC50 (HL-60)	fraction unbound at 4 h, 100 µM [3]	solubility at 2 h [4]	dG_exp, experimental binding free energy [5]	half-life at 10 µM (in vitro [6])	half-life [7, 11]	fraction unbound at 4 h, 100 µM [8, 12]	fraction unbound at 4 h, 100 µM [8, 13]	Mics (m) comp remaining 60 min [9]	microsomal CLint at 10 µM [9]	Mics (hu) comp remaining 60 min [10]	microsomal CLint at 10 µM [10]	also measured
O=P(O)(O)CP(=O)(O)OC[C@H]1O[C@@H](n2ccc3c(-c4ccsc4)ncnc32)[C@H](O)[C@@H]1O [4A.4]	> 2 h	> 10 µM	9.7 µM	> 10 µM	> 10 µM	3.4 µM	0.726	90 µM (≈ 44.2 µg/mL)	–13.2 kcal/mol	> 2 h	0.0833 h	0.82	0.125					t1/2 (half-life) ([7]; footnote: t1/2 stability in plasma, text: half-life in mouse PK, intravenous): 4.5 min; clearance ([7]; in vivo PK in mice, unit not given): high clearance; clearance ([7]; mouse, plasma, 1 mg/kg, male CD-1 mice, intravenous, single dose, read-out: Cl (obs), observed clearance): 12 mL/min/kg
O=P(O)(O)CP(=O)(O)OC[C@H]1O[C@@H](n2ccc3c(-c4cccc5ccccc45)ncnc32)[C@H](O)[C@@H]1O [4A.6]	> 2 h	> 10 µM	> 10 µM	> 10 µM	> 10 µM	> 10 µM	0.626	62 µM (≈ 33.2 µg/mL)	–14.4 kcal/mol	> 2 h	2.83 h	0.63	0.086					clearance ([7]; male, CD-1, mouse, plasma, iv, 1 mg/kg, in vivo PK in mice, unit inferred, read-out: clearance): 1.4 mL/min/kg
Nc1nc(-c2cccc3c2CCCC3)c2ccn([C@@H]3O[C@H](COP(=O)(O)CP(=O)(O)O)[C@@H](O)[C@H]3O)c2n1 [11C.12]	> 2 h	> 10 µM	> 10 µM	> 10 µM	> 10 µM	> 10 µM	0.445	88 µM (≈ 48.8 µg/mL)	–13.9 kcal/mol	> 2 h			0.157	100%	< 1 µL/min/mg	101%	< 1 µL/min/mg	
O=P(O)(O)CP(=O)(O)OC[C@H]1O[C@@H](n2ccc3c(-c4ccco4)nc(F)nc32)[C@H](O)[C@@H]1O [14D.1, [(5-{[2-Fluoro-4-(furan-2-yl)-7H-pyrrolo[2,3-d]pyrimidin-7-yl]-β-D-ribofuranosyl}oxy)phosphonomethyl]phosphonic Acid]	> 2 h	> 10 µM	> 10 µM	> 10 µM	> 10 µM	> 10 µM	0.664	80 µM (≈ 39.5 µg/mL)	–13.4 kcal/mol	> 2 h			0.045	96%	1 µL/min/mg	103%	< 1 µL/min/mg	
O=P(O)(O)CP(=O)(O)OC[C@H]1O[C@@H](n2ccc3c(-c4ccc5ccccc5c4)nc(F)nc32)[C@H](O)[C@@H]1O [14D.7]	> 2 h	> 10 µM	> 10 µM	> 10 µM	> 10 µM	> 10 µM	0.183	85 µM (≈ 47 µg/mL)	–14.2 kcal/mol	> 2 h			0.024	105%	< 1 µL/min/mg	112%	< 1 µL/min/mg	
